# How the values were obtained:
# [1] = Half life in CD-1 mouse at 3 mg/kg, iv; format: ADME, organism-based; settings: in vivo
# [2] = Clearance in CD-1 mouse at 3 mg/kg, iv; format: ADME, organism-based; settings: in vivo
# [3] = AUC in CD-1 mouse at 3 mg/kg, iv; format: ADME, organism-based; settings: in vivo
# [4] = Drug metabolism in rat hepatocytes assessed as acyl glucoronidation at 10 […] after 30 to 120 mins by LC-MS analysis; format: ADME, cell-based, Hepatocyte
# [5] = Drug metabolism in human hepatocytes assessed as acyl glucoronidation at 10 […] after 30 to 120 mins by LC-MS analysis; format: ADME, cell-based, Hepatocyte
# [6] = Thermodynamic solubility of the compound; format: physicochemical; settings: read-out: Therm_solubility
# [7] = Half life in CD-1 mouse at 1 mg/kg, iv; format: ADME, organism-based; settings: in vivo
# [8] = Clearance in CD-1 mouse at 1 mg/kg, iv; format: ADME, organism-based; settings: in vivo
# [9] = Volume of distribution at steady state in CD-1 mouse at 1 mg/kg, iv; format: ADME, organism-based; settings: in vivo, read-out: Vdss
# [10] = AUC in CD-1 mouse at 1 mg/kg, iv; format: ADME, organism-based; settings: in vivo
# [11] = Half life in CD-1 mouse at 10 mg/kg, po; format: ADME, organism-based; settings: in vivo
# [12] = Cmax in CD-1 mouse at 10 mg/kg, po; format: ADME, organism-based; design: dose 10 mg/kg, route oral; settings: in vivo
# [13] = AUC in CD-1 mouse at 10 mg/kg, po; format: ADME, organism-based; settings: in vivo
# [14] = Oral bioavailability in CD-1 mouse at 10 mg/kg; format: ADME, organism-based; settings: in vivo
# [15] = Half life in Wistar rat at 3 mg/kg, iv; format: ADME, organism-based; settings: in vivo
# [16] = Volume of distribution at steady state in Wistar rat at 3 mg/kg, iv; format: ADME, organism-based; settings: in vivo, read-out: Vdss
# [17] = Clearance in Wistar rat at 3 mg/kg, iv; format: ADME, organism-based; settings: in vivo
# [18] = AUC in Wistar rat at 3 mg/kg, iv; format: ADME, organism-based; settings: in vivo
# [19] = Half life in Wistar rat at 10 mg/kg, po; format: ADME, organism-based; settings: in vivo
# [20] = Cmax in Wistar rat at 10 mg/kg, po; format: ADME, organism-based; design: dose 10 mg/kg, route oral; settings: in vivo
# [21] = AUC in Wistar rat at 10 mg/kg, po; format: ADME, organism-based; settings: in vivo
# [22] = Oral bioavailability in Wistar rat at 10 mg/kg; format: ADME, organism-based; settings: in vivo
# [23] = Half life in cynomolgus monkey at 3 mg/kg, iv; format: ADME, organism-based, Macaca fascicularis; settings: in vivo
# [24] = Clearance in cynomolgus monkey at 3 mg/kg, iv; format: ADME, organism-based, Macaca fascicularis; settings: in vivo
# [25] = Volume of distribution at steady state in cynomolgus monkey at 3 mg/kg, iv; format: ADME, organism-based, Macaca fascicularis; settings: in vivo, read-out: Vdss
# [26] = AUC in cynomolgus monkey at 3 mg/kg, iv; format: ADME, organism-based, Macaca fascicularis; settings: in vivo
# [27] = Half life in cynomolgus monkey at 10 mg/kg, po; format: ADME, organism-based, Macaca fascicularis; settings: in vivo
# [28] = Cmax in cynomolgus monkey at 10 mg/kg, po; format: ADME, organism-based, Macaca fascicularis; design: dose 10 mg/kg, route oral; settings: in vivo
# [29] = AUC in cynomolgus monkey at 10 mg/kg, po; format: ADME, organism-based, Macaca fascicularis; settings: in vivo
# [30] = Oral bioavailability in cynomolgus monkey at 10 mg/kg; format: ADME, organism-based, Macaca fascicularis; settings: in vivo
# [31] = Drug metabolism in rat liver microsomes assessed as N-dealkylation; format: ADME, microsome
# [32] = Drug metabolism in rat hepatocytes assessed as oxidation
# [33] = Drug metabolism in rat hepatocytes assessed as hydrolysis
smiles,measurement,setting,value
CC(CCOc1ccccc1CN(C)C(=O)c1ccc(-c2ccco2)cc1)CCC(=O)O (stereo not drawn),half-life,[1],1.7 h
same,clearance,[2],4 mL/min/kg
same,AUC,[3],11800 ng·h/mL
same,Drug metabolism,[4],Metabolite_Detected
same,Drug metabolism,[5],Metabolite_Detected
C/C(=C\COc1ccccc1CN(C)C(=O)c1ccc(-c2ccco2)cc1)CCC(=O)O,half-life,[1],2.3 h
same,clearance,[2],15 mL/min/kg
same,AUC,[3],3300 ng·h/mL
same,solubility thermodynamic,[6],190 µM
same,half-life,[7],5.8 h
same,clearance,[8],8.4 mL/min/kg
same,Vd,[9],2.6 L/kg
same,AUC,[10],1980 ng·h/mL
same,half-life,[11],4.3 h
same,Cmax,[12],11100 ng/mL
same,AUC,[13],16600 ng·h/mL
same,bioavailability,[14],84%
same,half-life,[15],4.5 h
same,Vd,[16],0.9 L/kg
same,clearance,[17],7.2 mL/min/kg
same,AUC,[18],4650 ng·h/mL
same,half-life,[19],2.5 h
same,Cmax,[20],3800 ng/mL
same,AUC,[21],12500 ng·h/mL
same,bioavailability,[22],82%
same,half-life,[23],1.8 h
same,clearance,[24],8 mL/min/kg
same,Vd,[25],1.3 L/kg
same,AUC,[26],6200 ng·h/mL
same,half-life,[27],1.1 h
same,Cmax,[28],4190 ng/mL
same,AUC,[29],6050 ng·h/mL
same,bioavailability,[30],29%
same,Drug metabolism,[4],Metabolite_Detected
same,Drug metabolism,[5],Metabolite_Detected
CC(CCCCOc1ccccc1CN(C)C(=O)c1ccc(-c2ccco2)cc1)C(=O)O (stereo not drawn),half-life,[1],2.8 h
same,clearance,[2],3 mL/min/kg
same,AUC,[3],11400 ng·h/mL
same,Drug metabolism,[4],Metabolite_Detected
same,Drug metabolism,[5],Metabolite_Detected
C[C@H](CCCOc1ccccc1CN(C)C(=O)c1ccc(-c2ccco2)cc1)CC(=O)O,half-life,[1],3.9 h
same,clearance,[2],0.3 mL/min/kg
same,AUC,[3],77700 ng·h/mL
same,Drug metabolism,[4],Metabolite_Detected
same,Drug metabolism,[5],Metabolite_Detected
CN(Cc1ccccc1OCCCCCC(=O)O)C(=O)c1ccc(-c2ccco2)cc1,half-life,[1],1.7 h
same,clearance,[2],44 mL/min/kg
same,AUC,[3],1100 ng·h/mL
same,Drug metabolism,[4],Metabolite_Detected
same,Drug metabolism,[5],Metabolite_Detected
C[C@@H](CCCOc1ccccc1CN(C)C(=O)c1ccc(-c2ccco2)cc1)CC(=O)O,half-life,[1],2 h
same,clearance,[2],1.3 mL/min/kg
same,AUC,[3],30800 ng·h/mL
same,Drug metabolism,[4],Metabolite_Detected
same,Drug metabolism,[5],Metabolite_Detected
CN(Cc1ccccc1OCCCCC(C)(C)C(=O)O)C(=O)c1ccc(-c2ccco2)cc1,half-life,[1],4.6 h
same,clearance,[2],1.3 mL/min/kg
same,AUC,[3],48400 ng·h/mL
same,Drug metabolism,[4],Metabolite_Detected
same,Drug metabolism,[5],Metabolite_Detected
CN(Cc1ccccc1OCCC/C=C/C(=O)O)C(=O)c1ccc(-c2ccco2)cc1,half-life,[1],1.9 h
same,clearance,[2],67 mL/min/kg
same,AUC,[3],750 ng·h/mL
same,Drug metabolism,[4],Metabolite_Detected
same,Drug metabolism,[5],Metabolite_Detected
C/C(=C\CCCOc1ccccc1CN(C)C(=O)c1ccc(-c2ccco2)cc1)C(=O)O,half-life,[1],1.2 h
same,clearance,[2],4 mL/min/kg
same,AUC,[3],1300 ng·h/mL
same,Drug metabolism,[4],Metabolite_Detected
same,Drug metabolism,[5],Metabolite_Detected
C/C(=C\C(=O)O)CCCOc1ccccc1CN(C)C(=O)c1ccc(-c2ccco2)cc1,half-life,[1],1.6 h
same,clearance,[2],11 mL/min/kg
same,AUC,[3],4700 ng·h/mL
same,Drug metabolism,[4],Metabolite_Detected
same,Drug metabolism,[5],Metabolite_Detected
O=C(O)CCCCCOc1ccccc1CN(C(=O)c1ccc(-c2ccco2)cc1)C1CC1,Drug metabolism,[31],Metabolite_Detected
same,Drug metabolism,[32],Metabolite_Detected
same,Drug metabolism,[33],Metabolite_Detected
CN(Cc1ccccc1OCCC[C@@H]1C[C@@H]1C(=O)O)C(=O)c1ccc(-c2ccco2)cc1 (racemic),half-life,[1],2.7 h
same,clearance,[2],1.7 mL/min/kg
same,AUC,[3],30100 ng·h/mL
same,Drug metabolism,[4],Metabolite_Detected
same,Drug metabolism,[5],Metabolite_Detected
CN(Cc1ccccc1OCCC[C@@H]1C[C@H]1C(=O)O)C(=O)c1ccc(-c2ccco2)cc1 (racemic),half-life,[1],3.5 h
same,clearance,[2],0.6 mL/min/kg
same,AUC,[3],40500 ng·h/mL
same,Drug metabolism,[4],Metabolite_Detected
same,Drug metabolism,[5],Metabolite_Detected
